Measured values taken from patent publication US9487486B2, “Derivatives of nicotinic acid N-oxide, their preparation and their use as inhibitors of enzyme 3-hydroxyanthranilate-3, 4-dioxygenase” (UNIVERSITY OF MARYLAND, BALTIMORE, priority 2011, dated 2016).

What was measured:
[1] = target: T1, 3-hydroxyanthranilate-3,4-dioxygenase (3HAO) (Homo sapiens, UniProt P46952); assay: In vitro 3HAO inhibition in human brain homogenates; assay type: biochemical
T1 construct: One hundred μl of healthy human brain homogenate; from tissue; host or cells: healthy human brain homogenate
T1 sequence (P46952 1-286): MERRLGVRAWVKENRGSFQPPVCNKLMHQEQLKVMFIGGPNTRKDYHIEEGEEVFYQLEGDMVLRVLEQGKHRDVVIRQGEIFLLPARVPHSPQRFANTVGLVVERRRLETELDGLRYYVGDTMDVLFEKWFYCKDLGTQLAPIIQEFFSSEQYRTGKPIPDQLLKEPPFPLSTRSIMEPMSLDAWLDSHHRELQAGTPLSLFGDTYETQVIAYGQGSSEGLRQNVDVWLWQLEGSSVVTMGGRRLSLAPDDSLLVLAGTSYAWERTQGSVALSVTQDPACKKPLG
Experimental: (§1) The following procedure has been carried out for all the six compounds prepared according to the Examples 1-6 above.
(§2) One hundred μl of healthy human brain homogenate (1/10 dilution in bidistilled water) were further diluted (1/2, 5 v/v) with a 5 mM MES/NaOH buffer (pH 6.5) and incubated at 37° C. for 1 h in the presence of the radiolabeled substrate[14C]-3-hydroxyanthranilic acid (3.7 μM), ferrous ammonium sulphate (150 μM), ascorbic acid (0.01%). 20 μl of a solution (10 μM) of a compound of the invention were added prior to the addition of the radiolabeled substrate, to a final volume of 200 μl. The enzymatic reaction was stopped by adding 50 μl of 6% perchloric acid. The mixture was centrifuged for 5 min a 12.000 g and the supernatant was applied to a column packed with a cation-exchange resin (Dowex 50W, 0.5×2.0 cm; protonated form). [14C]-quinolinic acid formed by enzymatic reaction was eluted with 1 ml of distilled water. The eluate was added to scintillation liquid (Beckman, Ultima Gold) and radioactivity was measured with a beta-counter.
(§3) The same procedure has been repeated by adding 20 μl of a solution (100 μM) of a compound of the invention and repeated by adding 20 μl of a solution (1000 μM) of a compound of the invention.

[2] = target: T2, 3-hydroxyanthranilate-3,4-dioxygenase (3HAO) (Rattus norvegicus, UniProt P46953); assay: In vitro 3HAO inhibition in rat brain homogenates; assay type: biochemical
T2 construct: One hundred μl of control Sprague Dawley rat brain homogenate; from tissue; host or cells: Sprague Dawley rat brain homogenate
T2 sequence (P46953 1-286): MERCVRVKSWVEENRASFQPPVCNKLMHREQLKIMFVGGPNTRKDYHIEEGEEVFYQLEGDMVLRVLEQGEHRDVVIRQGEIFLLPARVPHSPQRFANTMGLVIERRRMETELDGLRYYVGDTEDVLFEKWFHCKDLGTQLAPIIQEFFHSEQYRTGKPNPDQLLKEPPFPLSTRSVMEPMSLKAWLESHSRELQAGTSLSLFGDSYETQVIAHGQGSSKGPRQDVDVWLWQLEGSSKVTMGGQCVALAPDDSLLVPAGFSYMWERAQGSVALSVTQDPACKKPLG
Experimental: as §1
as §2, with “μl of control Sprague Dawley rat brain homogenate” for “μl of healthy human brain homogenate”, “acid (3.7 µM), ferrous ammonium” for “acid (3.7 μM), ferrous ammonium”, “sulphate (150 µM), ascorbic acid” for “sulphate (150 μM), ascorbic acid”, “radiolabeled substrate, for a total” for “radiolabeled substrate, to a final”, “for a total volume of” for “to a final volume of”, “with a is beta-counter.” for “with a beta-counter.”
as §3

[3] = Chemical stability over time in phosphate buffer (HPLC); assay type: physicochemical; details: phosphate buffer pH 7.5; 10 and 100 μM; 37° C.; 24 h; FIG. 2
Experimental: Compound I3 was dissolved in a phosphate buffer at pH 7.5 at two different concentrations (10 and 100 μM). The resulting solutions were incubated at 37° C. for 24 h.
Chromatographic analyses were performed with a HPLC system (Shimadzu Corp., Kyoto, Japan), endowed with a UV/VIS detector, and the samples were eluted with a mixture containing methanol (0.05% TFA)/water (0.25% TFA)=20/80 at a flow rate of 1 ml/min.

[4] = system: de novo production of QUIN in QUIN-lesioned rat brain; assay: In vivo de novo production of QUIN from 3H-kynurenine in QUIN-lesioned rat striatum; details: 5 mM I3 co-infused intrastriatally with 3H-kynurenine, 7 days after lesion, 2 h, FIG. 1
Experimental: Quinolinic acid lesions in the rat striatum were made as described by Schwarcz et al. (1983), using 300 nmol quinolinic acid per injection. In vivo assays of I3 in the lesioned striatum were performed 7 days later. [Schwarcz R, Whetsell W O Jr, Mangano R M (1983) Quinolinic acid: an endogenous metabolite that produces axon-sparing lesions in rat brain. Science 219:316-8.]
Intrastriatal injection of 3H-kynurenine: two months-old male Sprague-Dawley rats were anesthetized with chloral hydrate (360 mg/kg, i.p.) and mounted in a David Kopf stereotaxic apparatus (Tujunga, Calif.). Through a small burr hole in the skull, […] of 3H-kynurenine [in phosphate-buffered saline (PBS), pH 7.4] was infused (6 μL over 10 min) intrastriatally. 3H-kynurenine was infused in the absence or presence of 5 mM I3. The injection coordinates were: AP: 1.0 mm anterior to bregma, L: 2.6 mm from the midline, V: 4.8 mm below dura. Animals were euthanized 2 h later and the striatum was dissected out, frozen on dry ice and stored at −80° C. Subsequently, the tissue was processed for the determination of tritiated neuroactive products of KP metabolism. […]
Analysis of 3H-quinolinic acid: the analysis of tritiated quinolinic acid derived from 3H-kynurenine was performed essentially as described by Guidetti et al. (1995). […] Tritiated quinolinic acid was detected radiometrically (Beta-Ram; IN/US Systems, Tampa, Fla.). […]

[5] = 10 μM compound, human brain homogenate
[6] = 100 μM compound, human brain homogenate
[7] = 1000 μM compound, human brain homogenate (I1-I3 table)
[8] = 10 μM compound, rat brain homogenate
[9] = 100 μM compound, rat brain homogenate
[10] = 1000 μM compound, rat brain homogenate (I1-I3 table)
[11] = 1000 μM compound, human brain homogenate (I4-I6 table)
[12] = 1000 μM compound, rat brain homogenate (I4-I6 table)

| SMILES | % inibition of 3HAO (h) [1, 5] [%] | % inibition of 3HAO (h) [1, 6] [%] | % inibition of 3HAO (h) [1, 7] [%] | % inibition of 3HAO (r) [2, 8] [%] | % inibition of 3HAO (r) [2, 9] [%] | % inibition of 3HAO (r) [2, 10] [%] | Chemical stability (HPLC) [3] | Effect on brain level of QUIN (de novo 3H-quinolinic acid production) [4] | % inibition of 3HAO (h) [1, 11] [%] | % inibition of 3HAO (r) [2, 12] [%] |
| --- | --- | --- | --- | --- | --- | --- | --- | --- | --- | --- |
| Nc1c(C(=O)O)ccc[n+]1[O-] [Compound I1, 2-aminonicotinic acid N-oxide] | 66 | 93 | 96 | 49 | 90 | 97 |  |  |  |  |
| Nc1c(C(=O)O)ccc(Cl)[n+]1[O-] [Compound I2, 2-amino-6-chloronicotinic acid N-oxide] | 42 | 100 | 100 | 22 | 76 | 99 |  |  |  |  |
| Cc1ccc(C(=O)O)c(N)[n+]1[O-] [Compound I3, 2-amino-6-methylnicotinic acid N-oxide] | 80 | 100 | 100 | 78 | 97 | 99 | complete chemical stability | able to block the abnormal de novo production of QUIN under excitotoxic conditions |  |  |
| Cc1ccc(C(N)=O)c(N)[n+]1[O-] [Compound I4, 2-amino-6-methylnicotinamide N-oxide] |  |  |  |  |  |  |  |  | 23 | 15 |
| Cc1cc(-c2ccccc2)c(C(=O)O)c(N)[n+]1[O-] [Compound I5, 2-amino-4-phenyl-6-methylnicotinic acid N-oxide] |  |  |  |  |  |  |  |  | 70 | 80 |
| CC(C)c1cc(C(C)C)[n+]([O-])c(N)c1C(=O)O [Compound I6, 2-amino-4,6-diisopropylnicotinic acid N-oxide] |  |  |  |  |  |  |  |  | 60 | 70 |
